# Data taken from patent US10544140B2, “Pharmaceutical composition containing, as active ingredient, 7-azaindolin-2-one derivative or pharmaceutically acceptable salt thereof” (LG CHEM, LTD., priority 2015, dated 2020).
# Legend:
# DU145 (prostate cancer) = assay: Cytotoxicity test by MTT assay, DU145; format: cell-based, human; settings: DU-145; for IC50: Homo sapiens, DU145, 48 h
# Procedure: (§1) A cytotoxicity test was measured by MTT assay. Each cell line was cultured in a 96-well plate at a density of 1×10^4 cells/well. After 24 hours, the culture medium containing 1% FBS (fetal bovine serum) was treated and reacted with compounds or solutions of compounds for 48 hours. MTT (3-(4,5-dimethylthiazol-2-yl)-2,5-diphenyltetrazolium bromide) solution (5 mg/mL) was added to each well and reacted for 4 hours in an incubator. […] After reacting in an incubator for 30 minutes, the formation of formazan was quantified using a microplate reader at an absorbance of 540 nm. […] The human cancer cell lines used herein are MCF-7 (breast cancer), MDA-MB-231 (breast cancer), HT-29 (colon cancer), DU145 (prostate cancer), U937 (myeloid leukemia), A549 (lung cancer), PANC-1 (pancreatic cancer) and MIA PaCa-2 (pancreatic cancer).
# [1] = system: MIA PaCa-2 (pancreatic cancer); assay: Cytotoxicity test by MTT assay, MIA PaCa-2; format: cell-based, human; settings: for IC50: Homo sapiens, MIA PaCa-2, 48 h
# Procedure: as §1
# [2] = system: PANC-1 (human pancreatic cancer cell line); assay: Cytotoxicity test by MTT assay, PANC-1; format: cell-based; settings: for IC50 / cytotoxicity at 30 µM: Homo sapiens; for IC50: PANC-1, 48 h; for cytotoxicity at 30 µM: PANC-1, 30 μM, 48 h, read-out: Cell viability (% inhibition)
# Procedure: (§2) A cytotoxicity test was measured by MTT assay. Each cell line was cultured in a 96-well plate at a density of 1×10^4 cells/well. […] MTT (3-(4,5-dimethylthiazol-2-yl)-2,5-diphenyltetrazolium bromide) solution (5 mg/mL) was added to each well and reacted for 4 hours in an incubator. […] After reacting in an incubator for 30 minutes, the formation of formazan was quantified using a microplate reader at an absorbance of 540 nm. […] At this time, sunitinib was used as a control group. […] The human cancer cell lines used herein are MCF-7 (breast cancer), MDA-MB-231 (breast cancer), HT-29 (colon cancer), DU145 (prostate cancer), U937 (myeloid leukemia), A549 (lung cancer), PANC-1 (pancreatic cancer) and MIA PaCa-2 (pancreatic cancer).
# HT-29 (colon cancer) = assay: Cytotoxicity test by MTT assay, HT-29; format: cell-based, human; settings: for IC50: Homo sapiens, HT-29, 48 h; for cytotoxicity compared with the reference drug sunitinib: HT-29
# Procedure: as §1
# [3] = Cytotoxicity test by MTT assay, HEK293 normal cell line; format: cell-based; settings: human, HEK293 cells (normal cell line)
# Procedure: (§3) A cytotoxicity test was measured by MTT assay. Each cell line was cultured in a 96-well plate at a density of 1×10^4 cells/well. After 24 hours, the culture medium containing 1% FBS (fetal bovine serum) was treated and reacted with compounds or solutions of compounds for 48 hours. MTT (3-(4,5-dimethylthiazol-2-yl)-2,5-diphenyltetrazolium bromide) solution (5 mg/mL) was added to each well and reacted for 4 hours in an incubator. […] After reacting in an incubator for 30 minutes, the formation of formazan was quantified using a microplate reader at an absorbance of 540 nm.
# [4] = Cytotoxicity test by MTT assay, CHO-K1 normal cell line; format: cell-based; settings: Chinese hamster, CHO-K1 cells (normal cell line)
# Procedure: as §3
# A549 (lung cancer) = assay: Cytotoxicity test by MTT assay, A549; format: cell-based, human; settings: for IC50: Homo sapiens, A549, 48 h; for cytotoxicity compared with the reference drug sunitinib: A-549
# Procedure: as §1
# [5] = system: MCF-7 (human breast cancer cell line); assay: Cytotoxicity test by MTT assay, MCF-7; format: cell-based; settings: for cytotoxicity at 30 µM / IC50: Homo sapiens, MCF7; for cytotoxicity at 30 µM: MCF-7, 30 μM, 48 h, read-out: Cell viability (% inhibition); for IC50: MCF-7, 48 h; for cytotoxicity compared with the reference drug sunitinib: MCF-7
# Procedure: as §2
# [6] = system: MDA-MB-231 (breast cancer); assay: Cytotoxicity test by MTT assay, MDA-MB-231; format: cell-based, human; settings: for IC50: Homo sapiens, MBA-MB-231, 48 h
# Procedure: as §1
# U937 (myeloid leukemia) = assay: Cytotoxicity test by MTT assay, U937; format: cell-based, human; settings: for IC50: Homo sapiens, U-937, U937, 48 h
# Procedure: as §1
SMILES,cytotoxicity compared with the reference drug sunitinib (DU145 (prostate cancer)),IC50 (DU145 (prostate cancer)) [µM],IC50 [1] [µM],IC50 [2] [µM],cytotoxicity at 30 µM [2] [%],cytotoxicity compared with the reference drug sunitinib ([2]; PANC-1),IC50 (HT-29 (colon cancer)) [µM],IC50 at 48 h [3] [µM],IC50 at 48 h [4] [µM],IC50 (A549 (lung cancer)) [µM],cytotoxicity at 30 µM [5] [%],IC50 [5] [µM],IC50 [6] [µM],IC50 (U937 (myeloid leukemia)) [µM],cytotoxicity compared with the reference drug sunitinib [5],cytotoxicity compared with the reference drug sunitinib ([1]; MIA PaCa-2),cytotoxicity compared with the reference drug sunitinib [6],also measured
"Cc1nc2c(c(C)c1O)/C(=C/c1ccc(N(C)C)cc1)C(=O)N2 [Compound I-18, (Z)-3-(4-(Dimethylamino)benzylidene)-5-hydroxy-4,6-dimethyl-1H-pyrrolo[2,3-b]pyridin-2(3H)-one]",greater than or equal to that of the reference drug sunitinib,1.14,11.5,13.8,66.3,greater than or equal to that of the reference drug sunitinib,36.3,> 90,> 90,13.2,62.5,13.2,12.1,,,,,
"Cc1nc2c(c(C)c1O)/C(=C/C(c1ccccc1)c1ccccc1)C(=O)N2 [Compound I-19, (Z)-3-(2,2-Diphenylethylidene)-5-hydroxy-4,6-dimethyl-1H-pyrrolo[2,3-b]pyridin-2(3H)-one]",,8.77,,7.41,81.4,greater than or equal to that of the reference drug sunitinib,11.5,26.2,30.1,31.5,78.1,6.37,22.9,16.6,greater than or equal to that of the reference drug sunitinib,,,
"Cc1nc2c(c(C)c1O)/C(=C/c1cccnc1)C(=O)N2 [Compound I-22, (Z)-5-Hydroxy-4,6-dimethyl-3-(pyridin-3-ylmethylene)-1H-pyrrolo[2,3-b]pyridin-2(3H)-one]",greater than or equal to that of the reference drug sunitinib,1.18,,,72.7,,19.9,> 90,78.5,13.8,78,17.4,9.61,14.5,,,,
"CCN(CC)CCNC(=O)c1c(C)[nH]c(/C=C2\C(=O)Nc3nc(C)c(O)c(C)c32)c1C [Compound I-39, (Z)—N-(2-(Diethylamino)ethyl)-5-((5-hydroxy-4,6-dimethyl-2-oxo-1H-pyrrolo[2,3-b]pyridin-3(2H)-ylidene)methyl)-2,4-dimethyl-1H-pyrrole-3-carboxamide]",greater than or equal to that of the reference drug sunitinib,2.88,7.94,15.1,69.6,greater than or equal to that of the reference drug sunitinib,20.9,40.7,> 90,19.9,62.7,6.09,5.31,8.01,greater than or equal to that of the reference drug sunitinib,greater than or equal to that of the reference drug sunitinib,greater than or equal to that of the reference drug sunitinib,
"CCNCCNC(=O)c1c(C)[nH]c(/C=C2\C(=O)Nc3nc(C)c(O)c(C)c32)c1C [Compound I-40, (Z)—N-(2-(Ethylamino)ethyl)-5-((5-hydroxy-4,6-dimethyl-2-oxo-1H-pyrrolo[2,3-b]pyridin-3(2H)-ylidene)methyl)-2,4-dimethyl-1H-pyrrole-3-carboxamide]",greater than or equal to that of the reference drug sunitinib,0.26,1.58,1.02,,greater than or equal to that of the reference drug sunitinib,1.45,19.1,40.7,1.47,,1.32,1.47,,greater than or equal to that of the reference drug sunitinib,greater than or equal to that of the reference drug sunitinib,greater than or equal to that of the reference drug sunitinib,cytotoxicity compared with the reference drug sunitinib (HT-29 (colon cancer)): greater than or equal to that of the reference drug sunitinib; cytotoxicity compared with the reference drug sunitinib (A549 (lung cancer)): greater than or equal to that of the reference drug sunitinib
"Cc1nc2c(c(C)c1O)/C(=C/c1[nH]c(C)c(C(=O)NC3CCCCC3)c1C)C(=O)N2 [Compound I-41, (Z)—N-Cyclohexyl-5-((5-hydroxy-4,6-dimethyl-2-oxo-1H-pyrrolo[2,3-b]pyridin-3(2H)-ylidene)methyl)-2,4-dimethyl-1H-pyrrole-3-carboxamide]",greater than or equal to that of the reference drug sunitinib,< 1,5.01,5.88,78.3,greater than or equal to that of the reference drug sunitinib,4.47,37.1,43.4,6.08,78.1,6.9,3.52,3.21,greater than or equal to that of the reference drug sunitinib,greater than or equal to that of the reference drug sunitinib,greater than or equal to that of the reference drug sunitinib,cytotoxicity compared with the reference drug sunitinib (U937 (myeloid leukemia); U937): greater than or equal to that of the reference drug sunitinib; cytotoxicity compared with the reference drug sunitinib (HT-29 (colon cancer)): greater than or equal to that of the reference drug sunitinib; cytotoxicity compared with the reference drug sunitinib (A549 (lung cancer)): greater than or equal to that of the reference drug sunitinib
"Nc1ccn([C@@H]2O[C@H](CO)[C@@H](O)C2(F)F)c(=O)n1 [Gemcitabine, reference compound]",,,> 1000,> 1000,,,,,,,,,,,,,,resistance of the cell line to the drug ([1]; MIA PaCa-2): resistance to gemcitabine; resistance of the cell line to the drug ([2]; PANC-1): resistance to gemcitabine
"CCN(CC)CCNC(=O)c1c(C)[nH]c(/C=C2\C(=O)Nc3ccc(F)cc32)c1C [Sunitinib, sunitinib, reference compound]",,5.88,8.51,,,,4.89,7.3,,6.98,,,6.09,6.98,,,,
